{"source": "patent US9562057B2", "about": "“(Thieno[2,3-b][1,5]benzoxazepin-4-yl)piperazin-1-yl compounds as dual activity H1 inverse agonists/5-HT2A antagonists” (Eli Lilly and Company, priority 2013, dated 2017)", "key": {"5-HT5": {"target": "5-HT5 (Homo sapiens, UniProt P47898)", "sequence (P47898 whole entry, species assumed)": "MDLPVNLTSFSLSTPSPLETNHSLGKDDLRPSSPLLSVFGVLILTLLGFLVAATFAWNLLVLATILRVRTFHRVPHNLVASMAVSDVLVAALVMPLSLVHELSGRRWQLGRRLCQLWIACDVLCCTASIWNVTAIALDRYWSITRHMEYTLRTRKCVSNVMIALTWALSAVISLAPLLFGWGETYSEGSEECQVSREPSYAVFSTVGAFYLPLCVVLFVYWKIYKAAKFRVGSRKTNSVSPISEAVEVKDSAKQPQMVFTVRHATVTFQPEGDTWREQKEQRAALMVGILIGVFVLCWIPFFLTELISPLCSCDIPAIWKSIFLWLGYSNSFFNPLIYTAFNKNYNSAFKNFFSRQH", "experiment": "5-HT5 binding", "from_the_text": "(§1) Further, the compounds of the invention may be tested in binding assays and functional activity assays by well known methods for other physiologically important receptors such as, but not limited to, the hERG channel, other serotonin receptors (specifically 5-HT1B and 5-HT1D receptors, lack of agonist activity at 5-HT2B receptors, 5-HT2C, 5-HT5, 5-HT6, and 5-HT7 receptors), dopaminergic receptors (specifically D1, D2, and D3), GABAA receptors, adrenergic receptors and monoamine transporters."}, "Plasma clearance": {"experiment": "Plasma clearance", "assay_type": "in vivo", "conditions": "dog, 1 mg/kg, male Beagle dogs, intravenous, 1 mL/kg of 1.0 mg/mL (free base equivalents)", "protocol": "Male Beagle dogs (body weight range 10-12 kg) are obtained from Marshall Bioresources, USA. Test compound is administered intravenously in solution (1 mL/kg) in 20% Captisol® in 22.5 mM phosphate buffer, pH 2, at a final drug concentration of 1.0 mg/mL (free base equivalents). Blood samples are obtained from the jugular vein over 24 hr. Samples of plasma are obtained by centrifugation and stored frozen (−20° C.) prior to analysis.\nFrozen plasma samples are thawed to room temperature for bioanalysis of concentrations of test compound. A related internal standard compound in acetonitrile/methanol (1:1, v/v) is added to all samples of plasma (1:1, v/v). The samples are centrifuged to remove precipitated protein prior to analysis. The supernatants are analysed by injection and rapid gradient elution on a Javelin Betasil C18 column (20×2.1 mm cartridge, Mobile phase A: Water/1 M NH4HCO3, 2000:10 v/v, Mobile Phase B: MeOH/1 M NH4HCO3, 2000:10 v/v). The eluted analytes are detected by LC-MS-MS analysis using a Sciex API 4000 triple quadrupole mass spectrometer. Concentrations of compound are determined from standards prepared and analysed under identical conditions. Clearance is calculated using non-compartmental analysis in Watson 7.4, Thermo Fisher Scientific, Inc."}, "Dopamine Transporter": {"target": "Dopamine Transporter (Homo sapiens, UniProt Q01959)", "sequence (Q01959 whole entry)": "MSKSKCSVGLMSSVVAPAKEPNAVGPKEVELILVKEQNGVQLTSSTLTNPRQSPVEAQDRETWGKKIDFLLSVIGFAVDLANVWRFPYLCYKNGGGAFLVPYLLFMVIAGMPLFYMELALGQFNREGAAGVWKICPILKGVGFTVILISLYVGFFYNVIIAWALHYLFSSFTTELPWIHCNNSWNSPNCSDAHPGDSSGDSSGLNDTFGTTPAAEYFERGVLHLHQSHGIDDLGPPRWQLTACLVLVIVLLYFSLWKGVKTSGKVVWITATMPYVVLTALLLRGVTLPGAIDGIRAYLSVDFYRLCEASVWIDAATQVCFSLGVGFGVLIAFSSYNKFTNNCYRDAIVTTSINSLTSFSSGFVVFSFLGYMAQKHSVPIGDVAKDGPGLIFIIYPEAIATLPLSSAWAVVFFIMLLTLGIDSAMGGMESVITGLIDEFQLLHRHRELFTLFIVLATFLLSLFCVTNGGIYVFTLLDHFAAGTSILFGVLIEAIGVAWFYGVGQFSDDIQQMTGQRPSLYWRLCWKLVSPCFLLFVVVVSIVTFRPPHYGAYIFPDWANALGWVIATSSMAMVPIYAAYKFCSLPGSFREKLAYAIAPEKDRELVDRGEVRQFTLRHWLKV", "experiment": "Dopamine transporter binding", "from_the_text": "as §1"}, "5-HT2A receptor": {"target": "T1, 5-HT2A receptor (Mus musculus, UniProt P35363)", "T1 construct": "The in vivo 5-HT2A receptor antagonist activity; from tissue; host or cells: living C57BL/6J mice", "T1 sequence (P35363 whole entry)": "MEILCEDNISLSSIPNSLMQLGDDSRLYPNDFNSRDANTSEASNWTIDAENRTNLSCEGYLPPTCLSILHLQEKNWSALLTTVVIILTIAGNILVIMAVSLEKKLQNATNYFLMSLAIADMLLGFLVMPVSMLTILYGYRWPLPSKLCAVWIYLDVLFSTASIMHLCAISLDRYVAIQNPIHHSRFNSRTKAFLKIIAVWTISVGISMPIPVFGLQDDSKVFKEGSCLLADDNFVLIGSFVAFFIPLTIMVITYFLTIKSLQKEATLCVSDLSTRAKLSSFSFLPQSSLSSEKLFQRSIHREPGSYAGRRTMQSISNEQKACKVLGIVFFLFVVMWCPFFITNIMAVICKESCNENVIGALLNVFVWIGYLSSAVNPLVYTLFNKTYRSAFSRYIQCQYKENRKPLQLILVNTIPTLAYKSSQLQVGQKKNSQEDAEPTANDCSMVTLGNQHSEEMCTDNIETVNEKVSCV", "experiment": "Inhibition of DOI induced headshake activity", "assay_type": "in vivo", "conditions": "male C57BL/6J mice, 10 mg/kg PO, 3 mg/kg DOI, 60 min. pre-treatment", "protocol": "(see for example Bartoszyk G D, van Amsterdam C, Böttcher H, Seyfried C A. EMD 281014, a new selective serotonin 5-HT2A receptor antagonist. Eur J Pharmacol. 2003 473: 229-230.) Briefly, male C57BL/6J mice (20-25 g, Charles River) are housed in standard housing conditions ([…], 07.00 to 19.00 light phase, constant temperature (19-23° C.) and humidity (50%+/−10), ad lib food and water). Mice received either vehicle (0.25% Methyl cellulose), DOI (3 mg/kg in saline) or test compound at 10 mg/kg PO plus DOI (3 mg/kg in saline). Test compounds are individually evaluated in groups of four per experiment with n=4 for each compound, together with vehicle and DOI+vehicle (n=8). After a test compound pre-treatment time of 60 min. the mice receive either vehicle (saline) or 3 mg/kg DOI dosed subcutaneously, and are then placed into clear perspex observation chambers. […] The data is analyzed using an ANOVA and post-hoc Dunnet's Test. The compound of example 2 is tested essentially as described and is found to inhibit the DOI induced headshake response produced by 3 mg/kg DOI by 100% at 10 mg/kg."}, "5-HT1D": {"target": "5-HT1D (Homo sapiens, UniProt P28221)", "sequence (P28221 whole entry, species assumed)": "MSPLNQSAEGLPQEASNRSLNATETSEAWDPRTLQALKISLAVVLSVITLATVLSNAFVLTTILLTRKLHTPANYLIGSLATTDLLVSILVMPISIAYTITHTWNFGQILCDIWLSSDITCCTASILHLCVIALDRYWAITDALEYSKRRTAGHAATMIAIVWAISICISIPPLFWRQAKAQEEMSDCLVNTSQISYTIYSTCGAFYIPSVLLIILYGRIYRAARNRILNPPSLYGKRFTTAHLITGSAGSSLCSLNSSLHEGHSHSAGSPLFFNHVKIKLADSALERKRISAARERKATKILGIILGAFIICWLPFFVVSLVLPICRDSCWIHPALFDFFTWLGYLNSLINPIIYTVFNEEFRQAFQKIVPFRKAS", "experiment": "5-HT1D binding", "from_the_text": "as §1"}, "Adrenergic alpha2A": {"target": "Adrenergic alpha2A (Homo sapiens, UniProt P08913)", "sequence (P08913 whole entry)": "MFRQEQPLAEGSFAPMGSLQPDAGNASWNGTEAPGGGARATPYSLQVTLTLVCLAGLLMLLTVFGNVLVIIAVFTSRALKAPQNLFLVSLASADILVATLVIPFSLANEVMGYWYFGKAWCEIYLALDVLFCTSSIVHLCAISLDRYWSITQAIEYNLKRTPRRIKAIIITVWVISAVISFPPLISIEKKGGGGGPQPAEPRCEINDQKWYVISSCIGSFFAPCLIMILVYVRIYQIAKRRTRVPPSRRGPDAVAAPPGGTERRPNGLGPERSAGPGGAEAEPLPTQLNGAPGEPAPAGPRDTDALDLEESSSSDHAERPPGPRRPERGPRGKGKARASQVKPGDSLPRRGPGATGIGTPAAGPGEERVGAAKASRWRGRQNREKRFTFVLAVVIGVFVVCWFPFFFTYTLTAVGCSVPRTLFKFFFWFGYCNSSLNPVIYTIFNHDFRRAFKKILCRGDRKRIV", "experiment": "Adrenergic alpha2A binding", "from_the_text": "as §1"}, "[1]": {"target": "T2, recombinant H1 receptor (human) (Homo sapiens, UniProt P35367)", "T2 construct": "expressed in transfected cells; host or cells: HEK-293", "T2 sequence (P35367 whole entry)": "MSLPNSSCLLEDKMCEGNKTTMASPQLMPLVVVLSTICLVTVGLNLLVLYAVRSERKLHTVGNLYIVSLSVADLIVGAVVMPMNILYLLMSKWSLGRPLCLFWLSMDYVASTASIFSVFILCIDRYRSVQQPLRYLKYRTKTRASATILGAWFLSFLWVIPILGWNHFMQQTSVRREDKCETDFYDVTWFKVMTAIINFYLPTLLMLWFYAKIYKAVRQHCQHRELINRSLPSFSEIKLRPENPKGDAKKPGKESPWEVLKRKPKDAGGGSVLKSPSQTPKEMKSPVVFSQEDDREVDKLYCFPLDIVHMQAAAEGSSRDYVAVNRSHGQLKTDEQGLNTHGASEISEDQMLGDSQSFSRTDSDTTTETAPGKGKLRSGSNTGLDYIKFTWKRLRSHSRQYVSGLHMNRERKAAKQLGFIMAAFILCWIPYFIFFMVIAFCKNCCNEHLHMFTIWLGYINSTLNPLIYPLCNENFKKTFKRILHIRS", "experiment": "H1 competition binding assay ([3H]-Pyrilamine, SPA)", "protocol": "[^3H]-Pyrilamine binding experiments are carried out in SPA (scintillation proximity assay) 96-well format. Membranes used in this assay are prepared from HEK-293 cells stably expressing recombinant H1 receptor (human). The incubation is initiated by the addition of a mixture of WGA PVT SPA beads (1 mg/well, Perkin Elmer (MA, USA) RPNQ0001) and 3 μg membranes to assay buffer (67 mM Tris; pH 7.6) containing 3.5 nM [^3H]-Pyrilamine and varying concentrations of the test compound (10 point concentration response curves). Non-specific binding is determined in the presence of 10 μM Triprolidine. Samples are incubated for 4 hr. at room temperature (22° C.) and then read in a Microbeta® Trilux.\n(§2) Binding data analysis Curves are evaluated using a 4-parameter logistic nonlinear equation to obtain the concentration of competitor causing 50% inhibition of radioligand binding (IC50). Equilibrium dissociation constants (Ki) are calculated according to the equation Ki=IC50/(1+L/Kd), where L equals the concentration of radioligand used in the experiment and Kd equals the equilibrium dissociation constant of the radioligand for the receptor, determined from standard saturation analysis or homologous competition experiments. Reported values for Ki, where n values are indicated, are shown as geometric mean±the standard error of the mean (SEM), with the number of replicate determinations indicated by n. […]"}, "Dopamine D2": {"target": "Dopamine D2 (Homo sapiens, UniProt P14416)", "sequence (P14416 whole entry)": "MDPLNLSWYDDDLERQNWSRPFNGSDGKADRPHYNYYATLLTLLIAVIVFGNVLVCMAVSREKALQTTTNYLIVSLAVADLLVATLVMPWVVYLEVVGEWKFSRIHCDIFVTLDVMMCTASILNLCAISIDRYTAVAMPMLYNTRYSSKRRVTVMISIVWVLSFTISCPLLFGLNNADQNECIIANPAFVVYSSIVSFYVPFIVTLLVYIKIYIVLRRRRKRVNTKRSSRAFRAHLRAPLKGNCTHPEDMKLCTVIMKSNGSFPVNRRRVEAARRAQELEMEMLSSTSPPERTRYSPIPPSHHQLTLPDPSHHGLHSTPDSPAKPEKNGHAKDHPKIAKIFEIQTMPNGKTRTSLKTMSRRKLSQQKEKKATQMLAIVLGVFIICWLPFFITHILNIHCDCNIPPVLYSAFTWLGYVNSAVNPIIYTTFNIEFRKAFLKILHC", "experiment": "Dopamine D2 binding", "from_the_text": "as §1"}, "[2]": {"target": "T3, recombinant 5-HT2A receptor (human) (Homo sapiens, UniProt P28223)", "T3 construct": "expressed in transfected cells; host or cells: AV-12", "T3 sequence (P28223 whole entry)": "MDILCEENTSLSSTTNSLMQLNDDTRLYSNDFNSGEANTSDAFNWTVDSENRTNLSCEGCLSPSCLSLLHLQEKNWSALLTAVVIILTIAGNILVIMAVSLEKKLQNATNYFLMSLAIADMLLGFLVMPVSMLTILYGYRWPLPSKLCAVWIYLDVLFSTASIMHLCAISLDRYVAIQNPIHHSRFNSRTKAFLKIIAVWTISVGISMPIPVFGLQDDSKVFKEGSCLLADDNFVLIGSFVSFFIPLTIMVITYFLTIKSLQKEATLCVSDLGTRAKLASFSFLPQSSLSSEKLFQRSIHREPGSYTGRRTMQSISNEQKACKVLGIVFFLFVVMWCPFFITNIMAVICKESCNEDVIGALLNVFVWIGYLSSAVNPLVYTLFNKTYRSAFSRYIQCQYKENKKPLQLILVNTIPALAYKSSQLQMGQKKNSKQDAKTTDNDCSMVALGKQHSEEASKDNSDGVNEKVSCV", "experiment": "5-HT2A competition binding assay ([3H]-Ketanserin, SPA)", "protocol": "[^3H]-Ketanserin binding experiments are carried out in SPA 96-well format. Membranes used in this assay are prepared from AV-12 cells stably expressing recombinant 5-HT2A receptor (human). The incubation is initiated by the addition of a mixture of WGA YSi SPA beads (1 mg/well, Perkin Elmer (MA, USA), RPNQ0011) and 2 μg membranes to assay buffer (67 mM Tris, 0.5 mM EDTA; pH 7.6) containing 3.1 nM [^3H]-Ketanserin and varying concentrations of the test compound (10 point concentration response curves). Non-specific binding is determined in the presence of 20 μM 1-(1-naphthyl) piperazine. Samples are incubated for 4 hr. at room temperature (22° C.) and then read in a Microbeta® Trilux.\nas §2"}, "5-HT7": {"target": "5-HT7 (Homo sapiens, UniProt P34969)", "sequence (P34969 whole entry, species assumed)": "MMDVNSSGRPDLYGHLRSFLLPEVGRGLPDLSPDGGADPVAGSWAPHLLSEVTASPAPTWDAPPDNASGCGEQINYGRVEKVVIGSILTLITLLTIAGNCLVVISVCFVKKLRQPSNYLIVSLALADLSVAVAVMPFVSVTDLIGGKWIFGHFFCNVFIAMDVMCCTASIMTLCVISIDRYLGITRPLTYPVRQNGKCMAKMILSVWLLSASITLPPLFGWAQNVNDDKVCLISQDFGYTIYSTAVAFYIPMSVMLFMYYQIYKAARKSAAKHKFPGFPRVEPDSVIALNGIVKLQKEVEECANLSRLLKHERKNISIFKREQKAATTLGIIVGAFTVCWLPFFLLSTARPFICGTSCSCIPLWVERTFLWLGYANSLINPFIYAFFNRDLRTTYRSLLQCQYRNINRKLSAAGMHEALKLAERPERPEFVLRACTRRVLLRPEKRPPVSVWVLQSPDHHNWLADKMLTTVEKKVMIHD", "experiment": "5-HT7 binding", "from_the_text": "as §1"}, "Dopamine D1": {"target": "Dopamine D1 (Homo sapiens, UniProt P21728)", "sequence (P21728 whole entry)": "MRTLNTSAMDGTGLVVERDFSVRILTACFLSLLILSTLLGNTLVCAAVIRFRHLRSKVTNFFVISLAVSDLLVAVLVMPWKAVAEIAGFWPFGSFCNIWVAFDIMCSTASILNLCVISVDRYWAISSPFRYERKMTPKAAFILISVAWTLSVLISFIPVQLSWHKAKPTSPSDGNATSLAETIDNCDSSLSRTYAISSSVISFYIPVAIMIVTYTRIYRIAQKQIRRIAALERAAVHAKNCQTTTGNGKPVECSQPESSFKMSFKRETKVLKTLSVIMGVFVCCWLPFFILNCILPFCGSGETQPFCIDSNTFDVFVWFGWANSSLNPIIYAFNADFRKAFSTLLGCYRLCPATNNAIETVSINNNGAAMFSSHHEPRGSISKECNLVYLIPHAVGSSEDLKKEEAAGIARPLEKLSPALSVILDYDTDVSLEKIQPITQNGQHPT", "experiment": "Dopamine D1 binding", "from_the_text": "as §1"}}, "note": "pKi: −log10 of the molar value. Structures can show the parent of a compound that is named as a salt."}
{"smiles": "Cc1ccc2c(c1)Oc1sc(C3CC3)cc1C(N1CCN(CC(C)(C)C(=O)O)CC1)=N2", "note": "[Example 2, 3-[4-(2-Cyclopropyl-8-methyl-thieno[2,3-b][1,5]benzoxazepin-4-yl)piperazin-1-yl]-2,2-dimethyl-propanoic acid dihydrochloride]", "values": [{"measurement": "pKi", "setting": "5-HT5", "value": 5.46}, {"measurement": "clearance", "setting": "Plasma clearance", "value": 6.06, "unit": "mL/min/kg"}, {"measurement": "pKi", "setting": "Dopamine Transporter", "value": "< 6.06"}, {"measurement": "inhibition of DOI induced headshake response", "setting": "5-HT2A receptor", "value": 100, "unit": "%"}, {"measurement": "pKi", "setting": "5-HT1D", "value": "< 5.40"}, {"measurement": "pKi", "setting": "Adrenergic alpha2A", "value": 5.23}, {"measurement": "pKi", "setting": "[1]", "value": 7.36}, {"measurement": "pKi", "setting": "Dopamine D2", "value": 5.63}, {"measurement": "pKi", "setting": "[2]", "value": 7.99}, {"measurement": "pKi", "setting": "5-HT7", "value": "< 5.69"}, {"measurement": "pKi", "setting": "Dopamine D1", "value": 6.00}]}
